Assay results as given in patent publication US6017914A, “Benzo[b]thiophene compounds, intermediates, formulations, and methods” (Eli Lilly and Company, priority 1997, dated 2000).

Assays:
uterus = test: Post-menopausal ovariectomized rat model: wet uterine weight; format: in vivo, female Sprague Dawley rats; details: daily for 4 days
Serum Cholesterol = test: Serum cholesterol in ovariectomized rats (Cholesterol Analysis); format: in vivo, female Sprague Dawley rats; details: daily for 4 days

| SMILES | Uterine Wt. (% Inc.) versus the ovariectomized controls (uterus; 0.1 mg/kg PO) | Uterine Wt. (% Inc.) versus the ovariectomized controls (uterus; 1 mg/kg PO) | Uterine Wt. (% Inc.) versus the ovariectomized controls (uterus; 10 mg/kg PO) | Serum Cholesterol (% Dec.) versus ovariectomized controls (Serum Cholesterol; 0.1 mg/kg PO) | Serum Cholesterol (% Dec.) versus ovariectomized controls (Serum Cholesterol; 1 mg/kg PO) | Serum Cholesterol (% Dec.) versus ovariectomized controls (Serum Cholesterol; 10 mg/kg PO) |
| --- | --- | --- | --- | --- | --- | --- |
| C#Cc1ccc2c(C(=O)c3ccc(OCCN4CCCCC4)cc3)c(-c3ccc(O)cc3)sc2c1 [Example 6, [2-(4-Hydroxyphenyl)-6-ethynylbenzo[b]thien-3-yl][4-[2-(1-piperidinyl)ethoxy]phenyl]methanone] | 14.3% | 27.8% | 22.5% |  |  |  |
| CC(=O)c1ccc2c(C(=O)c3ccc(OCCN4CCCCC4)cc3)c(-c3ccc(O)cc3)sc2c1 [Example 5, [2-(4-Hydroxyphenyl)-6-acetylbenzo[b]thien-3-yl][4-[2-(1-piperidinyl)ethoxy]phenyl]methanone] | 18.8% | 51.8% | 69.4% | -6.3% |  |  |
| CCCCOC(=O)c1ccc2c(C(=O)c3ccc(OCCN4CCCCC4)cc3)c(-c3ccc(O)cc3)sc2c1 [Example 2, [2-(4-Hydroxyphenyl)-6-n-butoxycarbonylbenzo[b]thien-3-yl][4-[2-(1-piperidinyl)ethoxy]phenyl]methanone] | 19.4% | 16.8% | 52.5% | -1.2% |  |  |
| Cl.O=C(O)c1ccc2c(C(=O)c3ccc(OCCN4CCCCC4)cc3)c(-c3ccc(O)cc3)sc2c1 [Example 4, [2-(4-Hydroxyphenyl)-6-carboxybenzo[b]thien-3-yl][4-[2-(1-piperidinyl)ethoxy]phenyl]methanone Hydrochloride] | 18.8% | 27.2% | 29.6% | 0.6% |  |  |
| COC(=O)c1ccc2c(C(=O)c3ccc(OCCN4CCCCC4)cc3)c(-c3ccc(O)cc3)sc2c1.Cl [Example 1, [2-(4-Hydroxyphenyl)-6-methoxycarbonylbenzo[b]thien-3-yl][4-[2-(1-piperidinyl)ethoxy]phenyl]methanone Hydrochloride] | 46.9% | 19.1% | 45.2% | -8.6% |  |  |
| CC(C)COC(=O)c1ccc2c(C(=O)c3ccc(OCCN4CCCCC4)cc3)c(-c3ccc(O)cc3)sc2c1 [Example 3] | 11.8% | 21.7% | 47.1% | -2.4% | 8.7% | 58.0% |
